Results published in patent publication EP4050002A1, “ANTI-PROLIFERATIVE AGENTS” (First Health Pharmaceuticals B.V., priority 2021, dated 2022).

Key:
[1] = target: T1, DDX3X (Homo sapiens, UniProt O00571); assay: nanoDSF enzymatic binding (melting temperature shift); parameters: human DDX3X (residues 132-607, UniProtID: 000571, produced by Proteros GmbH); purchased Proteros GmbH; conditions: Compound 100 µM, DDX3 4 µM
Excerpt: The binding of compounds to DDX3X have been assessed by nanoDSF analysis (NanoTemper Technologies GmbH, Flößergasse 4, 81369 München, Germany). NanoDSF technology is a Differential Scanning Fluorimetry method which measures the protein stability with high resolution without the need of a dye. In particular it measures the changes of the intrinsic tryptophan fluorescence at 330 and 350 nm and it is used to determine the melting temperature of a protein. In the folded state the residues of tryptophan are buried in the hydrophobic core. During denaturation the residues are more exposed and the fluorescence changes in both intensity and wavelength. In a typical experiment, the protein is mixed with the ligand in the reaction buffer and transferred into a capillary. The fluorescence is monitored over temperature gradient between 20 and 95°C with an increment of 2.5°C per minute. The interaction of the ligand to the folded state of the protein shifts the protein melting temperature (Tm) at higher or lower temperature.
Experimental conditions: the experiments were conducted with the device Prometheus NT.48 (NanoTemper Technologies GmbH), the enzyme used was the human DDX3X (residues 132-607, UniProtID: 000571, produced by Proteros GmbH). The assessed compounds were dissolved in pure DMSO adequate to obtain a concentration of compound of 100µM and DMSO 1% (v:v) in final solution. Reaction buffer for DDX3X was 20 mM HEPES, pH 7.5, 0.5 mM TCEP, 500 mM NaCl, 10% (v:v) Glycerin, with a final reaction volume of 10 µL and a final DMSO concentration of 1% (v:v). The reaction was performed in "High sensitivity capillaries" in the range of 20-95°C with a heating rate of 2.5°C/min, with an incubation time of 60 minutes.
• 1) Add appropriate volume of target enzyme in reaction buffer • 2) Add compound(s) in 100% DMSO (1% final DMSO conc.) • 3) Fill the capillary • 4) Measure fluorescence
The assay development was performed with DDX3X protein alone showing a Tm at 54.6 °C.
Binding of compound 5 was assessed with the NanoDSF technique, evaluating the association of the aforementioned compound with APO DDX3X and in presence of a competitor for the ATP binding site, Adenylyl imidodiphosphate (AMPPNP) to assess competition of compound 5 for the DDX3X ATP binding site. Table 6. Final protein and compound concentrations in the various assay setup:
All the measures were performed in triplicate and the average (Mean Tm) and standard deviation (SD) were calculated with the following equations: [formula] and SD = sqrt((∑((Tm−Mean Tm))^2)/(n−1)) [formula]
A change of 5xSD from the 1% DMSO control mean is considered to be a significant Tm change. Test of DDX3X with 1% DMSO was performed to obtain the reference melting temperature of the protein alone. Compounds are considered as binders if the Tm shifts by >= 5 times the standard deviation of the control (protein in the absence of compound). Table 7. DDX3X melting temperatures (Tm) at various experimental conditions
Target sequence in this assay (O00571 132-607): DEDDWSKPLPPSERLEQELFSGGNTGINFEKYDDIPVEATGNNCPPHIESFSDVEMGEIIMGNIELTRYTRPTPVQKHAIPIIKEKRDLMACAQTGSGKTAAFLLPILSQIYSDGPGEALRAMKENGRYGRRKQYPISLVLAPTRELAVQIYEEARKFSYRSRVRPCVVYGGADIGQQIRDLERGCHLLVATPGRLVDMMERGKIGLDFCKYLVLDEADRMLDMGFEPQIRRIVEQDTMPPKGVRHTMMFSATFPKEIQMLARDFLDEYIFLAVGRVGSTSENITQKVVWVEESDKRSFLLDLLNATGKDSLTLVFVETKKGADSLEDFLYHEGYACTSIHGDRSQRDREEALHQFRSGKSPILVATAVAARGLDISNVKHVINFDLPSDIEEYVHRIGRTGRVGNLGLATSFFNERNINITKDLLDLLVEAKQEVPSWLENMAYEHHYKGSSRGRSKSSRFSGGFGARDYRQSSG

[2] = target: T1, DDX3X; assay: Helicase assay (unwinding of 18/36mer dsRNA); format: biochemical; parameters: host or cells: 293T cells (transient transfection, anti-HA immunoprecipitation, protein kept on beads); conditions: 50, 250 and 500 µM, in presence of ATP
Experimental: The DDX3X protein was obtained by immunoprecipitation from 293T cells (3x10^5) were seeded in 6-well plates and, after 24h, transfected with 1 µg of HA-DDX3 (Addgene plasmid # 44975) by using the Lipofectamine reagent (Thermo Fischer Scientific). After 36 h, cells were lysed in NP-40 Lysis Buffer (20 mM HEPES pH=7.5, 10 mM EGTA pH=8, 40 mM β-glycerolphosphate, 1% NP40, 2.5 mM MgCl2, 2 mM Orthovanadate, 2 mM NaF, 1 mM DTT, and 1X protease inhibitors mixture) and 2 mg of proteins were immunoprecipitated with anti-HA antibodies (Covance) in NP40 lysis buffer. Immunoprecipitated samples were washed twice with lysis buffer and one time in helicase reaction buffer (50 mM Tris HCl pH=8, 1 mM DTT, 5% glycerol, 10 mM MgCl2). Beads were then resuspended in 100 µl in helicase reaction buffer. […]
Ultimately, reactions were performed in a final volume 100 µl of helicase reaction buffer plus ATP 4 mM, 30 µl of beads used to immunoprecipitate HA-DDX3X, 20 nM of 18/36mer dsRNA and 100 nM of competitor at 37°C for 1 hour and stopped by adding 10 µl of a stopping solution (EDTA 60 mM pH=8, 40% glycerol, 0.6% SDS, 1% Orange G). […] Quantification of the ssRNA was performed by the ImageJ software (version 1.53, NIH). […]
Target sequence in this assay (O00571 whole entry, the tested form may be a part): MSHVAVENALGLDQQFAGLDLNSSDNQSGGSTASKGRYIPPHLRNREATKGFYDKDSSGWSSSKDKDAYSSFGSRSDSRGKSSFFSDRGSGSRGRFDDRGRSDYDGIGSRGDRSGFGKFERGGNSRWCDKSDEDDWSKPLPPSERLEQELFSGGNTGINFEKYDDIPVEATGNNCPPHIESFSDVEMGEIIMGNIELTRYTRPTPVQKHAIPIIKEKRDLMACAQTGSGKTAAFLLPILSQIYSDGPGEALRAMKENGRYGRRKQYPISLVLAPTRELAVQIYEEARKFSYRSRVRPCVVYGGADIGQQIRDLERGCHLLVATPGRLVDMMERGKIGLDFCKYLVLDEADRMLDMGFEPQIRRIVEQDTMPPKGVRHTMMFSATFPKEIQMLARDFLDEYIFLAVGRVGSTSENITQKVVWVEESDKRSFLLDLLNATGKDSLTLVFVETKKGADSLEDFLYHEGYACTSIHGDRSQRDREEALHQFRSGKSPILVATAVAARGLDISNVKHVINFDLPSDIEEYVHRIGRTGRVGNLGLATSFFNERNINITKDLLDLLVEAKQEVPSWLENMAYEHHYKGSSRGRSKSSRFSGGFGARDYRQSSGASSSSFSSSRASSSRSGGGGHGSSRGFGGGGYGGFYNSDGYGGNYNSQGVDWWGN

CCCCc1cn(-c2ccc(-c3nnc(-c4ccccc4C(F)(F)F)o3)cc2)nn1 [Compound 5]
Comment (Tm shift) ([1]; AMPPNP 100 µM): significant Tm shift to higher Tm, compound interference | Mean Tm ([1]; AMPPNP 100 µM): 56.8 °C | Comment (Tm shift) ([1]; no AMPPNP): significant Tm shift to higher Tm, compound interference | Mean Tm ([1]; no AMPPNP): 56.9 °C | inhibitory effect on DDX3X helicase activity [2]: inhibitory effect on DDX3X helicase activity
